Assay results taken from article PMC7532663, “Pharmacological inhibition of mTORC1 increases CCKBR-specific tumor uptake of radiolabeled minigastrin analogue [^177Lu]Lu-PP-F11N” (Theranostics, 2020).
“And” between values parts separate entries of the source, which are not always exact repeats. Identical values can stand only once. One block for each molecule: values may come before it.

Tests used:
in vivo = conditions: female, CD-1 nude, mouse, iv, 3 pmol, total radioactivity, Uptake [% i.A./g], PBS group, control PBS-treated mice, 3 pmol i.v., 4 h post injection, mean
[1] = clinical study; cited from earlier work
Source text: Overexpression of G-protein coupled receptors (GPCRs) that selectively bind their peptide ligands allowed the development of the peptide receptor radionuclide therapy (PRRT) for human cancers. One of the most important properties of PRRT is a high uptake ratio of tumor-to-healthy-tissue in terms of radiolabeled ligands. Consequently, the molecular strategies which increase uptake of radiopharmaceuticals selectively in cancer tissue while sparing healthy organs from cytotoxic side effects have huge potential to improve PRRT efficacy. Activated GPCRs by agonistic ligand-based radiotherapeuti ...

AR42J cells [2] = format: cell-based, rat
Source text: (§1) […]. […] […].

[3] = system: mTORC1-regulated phosphorylation of the ribosomal protein S6 at Ser235/236; assay: WB analysis of phospho-S6; format: cell-based, human
Description: (§2) Antibodies against phospho-S6 at S235/S236 (D57.2.2F), ERK1/2 (9102), phospho-ERK1/2 (T202/Y204), GAPDH (14C10) and HA-Tag (C29F4) were obtained from Cell Signaling Technology, whereas the anti-CCKBR (ab77077) was from Abcam. Cells were homogenized in lysis buffer (50 mM Tris-HCl pH 7.5, 150 mM NaCl, 1% Triton X, 0.1% SDS supplemented with 1 mM sodium orthovanadate, 1 mM NaF and protease inhibitor cocktail (Roche)). 50 μg of total protein lysates were separated by SDS-PAGE and transferred to PVDF membranes (Millipore) by electroblotting. Membranes were blocked with 5% skim milk in TBST (0.1% Tween 20) for 1 h, and incubated with 2% BSA in TBST overnight with the primary antibody followed by 2 h incubation with HRP-conjugated secondary antibody. Signals were produced by using a chemiluminescence reagent (ECL) and acquired by ImageQuant RT ECL Imager (GE Healthcare). Prior to CCKBR detection by WB, protein lysates were subjected to deglycosylation. Briefly, 18 μL of total protein lysates (50 µg) were mixed with 2 μL of 10× denaturing buffer (5% SDS, 0.4 M DTT) and incubated for 10 min at RT. Next, 4 μL of 10× Glycobuffer (0.5 M sodium phosphate, pH 7.5), 4 μL of 10% Tween-20 and 10 μL of water were added. Finally, 2 μL of PNGase F (Sigma) was added and the reaction was carried out for 16 h at 37°C.

[4] = system: β-arrestin-1 recruitment to CCKBR; assay: Split luciferase arrestin recruitment assay; format: cell-based, human; conditions: RAD001 20 h, then 1 µM PP-F11N
A431/CCKBR tumors = assay: HE staining and immunohistochemistry of tumor sections; format: in vivo, mouse
Description: Formalin-fixed, paraffin tumor sections were deparaffinized, rehydrated and pretreated in 10 mM citrate buffer, pH 6.0, at 98 °C for 60 minutes, followed by incubation with 4% fat-free milk in PBS for 90 minutes. For avidin/biotin blocker treatment (Invitrogen) and detection, the ABC method was used. For monoclonal antibody against Ki67 (SP6, Thermo Scientific) and CD34 (cloneQBend/10; Dako) signals were recorded using an automated instrument reagent system (Discovery XT, Ventana Medical System Inc.). Images of hematoxylin-counterstained sections were captured (Nikon, YTHM) and analyzed using ImageAccess Enterprise7 and ImageJ software. Tumor necrotic areas and vascularization were analyzed in 10 (RAD001 and PBS) and 8 (metformin) images, whereas Ki67 and mitotic index in 15 (RAD001 and PBS) and 12 (metformin) images.

[5] = system: A431/CCKBR-tumor bearing nude mice; assay: Tumor volume, mouse weight and toxicity during treatment; format: in vivo
A431/CCKBR cells [6] = assay: Total protein concentration of cell lysates; format: cell-based, human; conditions: 100 nM RAD001 or 10 mM metformin, 20 h
Source text: as §1

A431 cells = assay: Total protein concentration of cell lysates; format: cell-based, human; conditions: 100 nM RAD001
Source text: as §1

CCKBR = assay: WB analysis of CCKBR protein level in deglycosylated lysates; format: cell-based, human; conditions: 50 or 100 nM RAD001, 20 h; A431/CCKBR; CCKBR/GAPDH
Description: as §2

[7] = system: β-arrestin-2 recruitment to CCKBR; assay: Split luciferase arrestin recruitment assay; format: cell-based, human; conditions: RAD001 20 h, then 1 µM PP-F11N
[8] = system: A431/CCKBR-tumor bearing nude mice
AR42J cells [9] = assay: Total protein concentration of cell lysates; format: cell-based, rat; conditions: 100 nM RAD001
Source text: as §1

A431/CCKBR cells [10] = assay: Hoechst fluorescence cell number control; format: cell-based, human; conditions: RAD001 pretreatment 20 h
A431/CCKBR cells [11] = conditions: 100 nM RAD001 or 10 mM metformin

SMILES: CCCC[C@H](NC(=O)[C@H](Cc1c[nH]c2ccccc12)NC(=O)CNC(=O)[C@H](Cc1ccc(O)cc1)NC(=O)[C@H](C)NC(=O)[C@@H](CCC(=O)O)NC(=O)[C@@H](CCC(=O)O)NC(=O)[C@@H](CCC(=O)O)NC(=O)[C@@H](CCC(=O)O)NC(=O)[C@@H](CCC(=O)O)NC(=O)[C@@H](CCC(=O)O)NC(=O)CN1CCN(CC(=O)O)CCN(CC(=O)O)CCN(CC(=O)O)CC1)C(=O)N[C@@H](CC(=O)O)C(=O)N[C@@H](Cc1ccccc1)C(N)=O [[^177Lu]Lu-PP-F11N, [^177Lu]Lu-DOTA-(DGlu)6-Ala-Tyr-Gly-Trp-Nle-Asp-Phe-NH2, metal not drawn]
tissue uptake at 4 h (in vivo; Blood): 0.043 %ID/g | tissue uptake at 4 h (in vivo; Bone): 0.37 %ID/g | tissue uptake at 4 h (in vivo; Brain): 0.03 %ID/g | tissue uptake at 4 h (in vivo; Intestines): 0.23 %ID/g | tissue uptake at 4 h (in vivo; Kidney): 3.07 %ID/g | tissue uptake at 4 h (in vivo; Liver): 0.17 %ID/g | tissue uptake at 4 h (in vivo; Lung): 0.08 %ID/g | tissue uptake at 4 h (in vivo; Pancreas): 0.12 %ID/g | tissue uptake at 4 h (in vivo; Spleen): 0.1 %ID/g | tissue uptake at 4 h (in vivo; Stomach): 1.01 %ID/g | tissue uptake at 4 h (in vivo; Tumor, n=6): 10.9 %ID/g | median tumor-to-kidney dose ratio [1]: 11.6 | tumor-to-stomach dose ratio [1]: 3.34

effect of RAD001 on β-arrestin-1 recruitment [4]: no difference | effect of RAD001 on β-arrestin-2 recruitment [7]: no difference
SMILES: CO[C@H]1C[C@@H]2CC[C@@H](C)[C@@](O)(O2)C(=O)C(=O)N2CCCC[C@H]2C(=O)O[C@H]([C@H](C)C[C@@H]2CC[C@@H](OCCO)[C@H](OC)C2)CC(=O)[C@H](C)/C=C(\C)[C@@H](O)[C@@H](OC)C(=O)[C@H](C)C[C@H](C)/C=C/C=C/C=C/1C [RAD001, Everolimus]
internalization ratio [RAD001/control] (AR42J cells [2]): 1.7 | [177Lu]Lu-PP-F11N internalization in treated cells (AR42J cells [2]; 100 nM RAD001): 10% | S6 phosphorylation (WB) ([3]; 20 h incubation with 50, 100 and 200 nM RAD001, A431/CCKBR): inhibited S6 phosphorylation | phosphorylation of S6 at Ser235/236 (WB) ([3]; A431/CCKBR cells, 100 nM RAD001 or 10 mM metformin): lack of mTORC1-regulated phosphorylation | mitotic index (A431/CCKBR tumors; 5 days treatment, mean ± SD): 0.75% and 0.75 ± 0.36% | tumor vascularization (A431/CCKBR tumors; HE and CD34, five-day treatment): No significant difference | necrosis (necrotic area) (A431/CCKBR tumors; HE stain, 5 days treatment, mean ± SD): 10.6 ± 6.4% | Ki67 positive cells (A431/CCKBR tumors; IHC, 5 days treatment, mean ± SD): 61% and 61 ± 8.6% | mouse weight ([5]; 3 daily doses): without influencing overall mouse weight | tumor volume ([5]; 3 daily doses): significantly reduced tumor volumes | mouse weight ([5]; 5 days daily treatment): without influencing overall mouse weight | tumor volume ([5]; 5 days daily treatment): significantly reduced tumor volumes | total protein level compared to control (A431/CCKBR cells [6]): 79% | total protein level compared to control (A431 cells): 79% | increase of CCKBR level (CCKBR): 2.2 fold | influence on [177Lu]Lu-PP-F11N tumor uptake ([8]; three doses of metformin or one RAD001 dose): only moderately and did not reach statistical significance | [177Lu]Lu-PP-F11N uptake in tumors of matching sizes ([8]; tumors ranging from 50-150 or 50-180 mg): statistically significant increase | total protein level compared to control (AR42J cells [9]): 84% | cell number by Hoechst fluorescence (A431/CCKBR cells [10]): significantly reduced cell number | internalization ratio [treatment/control] (A431/CCKBR cells [11]; 20 h): 1.5 | [177Lu]Lu-PP-F11N internalization in treated cells (A431/CCKBR cells [11]; 20 h treatment, 0.3 pmol radioligand 1 h, triplicate): 24.3%
